According to patent US4971967A, “Quinolinecarboxylic acid derivatives, antibacterial compositions and use” (Kanebo Ltd, priority 1989, dated 1990):
Converted amounts (≈) assume the structure as drawn. Where a name gives a salt, the structure may show the parent alone. Read-outs that look alike come from different tables or passages of the source.

What was measured:
Format in all cases: cell-based
Proteus vulgaris OX-19 = test: Antibacterial activity (MIC), Proteus vulgaris OX-19
Experimental: (§1) The compounds of the present invention (A, C, D, E, F, G, H, I, J, L, O and P) and the known compound (X) as reference were dissolved in 0.1 N aqueous sodium hydroxide to prepare a solution of 5000 μg/ml in concentration. The compounds of the present invention (B, K, M and N) and the known compound (Y) were dissolved in sterilized distilled water to prepare a solution of 5000 μg/ml in concentration. Each solution was diluted with sterilized distilled water to prepare a standard solution with a concentration of each test compound: 1000 μg/ml. The test was carried out by a method as appointed by Japan Society of Chemotherapy [cf. Chemotherapy, 29, 76-79 (1981)(TOKYO)].

[1] = test system: Staphylococcus aureus IID 803; test: Antibacterial activity (MIC), S. aureus IID 803
Experimental: as §1

[2] = test system: Salmonella typhimurium IID 971; test: Antibacterial activity (MIC), Salmonella typhimurium IID 971; settings: Salmonella enterica; Salmonella typhimurium IID 971, Gram -; read-out: Minimum inhibitory concentration (MIC)
Experimental: as §1

[3] = test system: Citrobacter freundii NIHJ 10018-68; test: Antibacterial activity (MIC), Citrobacter freundii NIHJ 10018-68; settings: for MIC: Citrobacter freundii, NIHJ10018, Citrobacter freundii NIHJ 10018-68, Gram -, read-out: Minimum inhibitory concentration (MIC)
Experimental: as §1

Shigella sonnei EW-33 = test: Antibacterial activity (MIC), Shigella sonnei EW-33; settings: for MIC: Shigella sonnei, EW33, Shigella sonnei EW-33, Gram -, read-out: Minimum inhibitory concentration (MIC)
Experimental: as §1

[4] = test system: Proteus mirabilis IFO 3849; test: Antibacterial activity (MIC), Proteus mirabilis IFO 3849; settings: IFO3849; Proteus mirabilis IFO 3849, Gram -; read-out: Minimum inhibitory concentration (MIC)
Experimental: as §1

Enterobacter cloacae 963 = test: Antibacterial activity (MIC), Enterobacter cloacae 963; settings: for MIC: Enterobacter cloacae, 963, Enterobacter cloacae 963, Gram -, read-out: Minimum inhibitory concentration (MIC)
Experimental: as §1

[5] = test system: Staphylococcus aureus FDA 209P JC-1; test: Antibacterial activity (MIC), S. aureus FDA 209P JC-1; settings: FDA209P, read-out: Minimum inhibitory concentration (MIC)
Experimental: as §1

[6] = test system: Serratia marcescens IAM 1184; test: Antibacterial activity (MIC), Serratia marcescens IAM 1184; settings: for MIC: Serratia marcescens, IAM1184, Serratia marcescens IAM 1184, Gram -, read-out: Minimum inhibitory concentration (MIC)
Experimental: as §1

[7] = test system: Klebsiella pneumoniae PCI-602; test: Antibacterial activity (MIC), Klebsiella pneumoniae PCI-602; settings: PCI602; Klebsiella pneumoniae PCI-602, Gram -; read-out: Minimum inhibitory concentration (MIC)
Experimental: as §1

[8] = test system: Staphylococcus epidermidis IAM-1296; test: Antibacterial activity (MIC), S. epidermidis IAM-1296; settings: for MIC: Staphylococcus epidermidis, IAM1296, Staphylococcus epidermidis IAM-1296, Gram +, read-out: Minimum inhibitory concentration (MIC)
Experimental: as §1

[9] = test system: Acinetobacter calcoaceticus AC 54; test: Antibacterial activity (MIC), Acinetobacter calcoaceticus AC 54; settings: AC54; Acinetobacter calcoaceticus AC 54, Gram -; read-out: Minimum inhibitory concentration (MIC)
Experimental: as §1

Escherichia coli KC-14 = test: Antibacterial activity (MIC), E. coli KC-14
Experimental: as §1

[10] = test system: Escherichia coli NIHJ JC-2; test: Antibacterial activity (MIC), E. coli NIHJ JC-2; settings: NIHJJC2; Escherichia coli NIHJ JC-2, Gram -; read-out: Minimum inhibitory concentration (MIC)
Experimental: as §1

[11] = test system: Bacillus subtilis ATCC 6633; test: Antibacterial activity (MIC), Bacillus subtilis ATCC 6633; settings: for MIC: Bacillus subtilis, ATCC6633, Bacillus subtilis ATCC 6633, Gram +, read-out: Minimum inhibitory concentration (MIC)
Experimental: as §1

[12] = test system: Pseudomonas aeruginosa NCTC 10490; test: Antibacterial activity (MIC), P. aeruginosa NCTC 10490; settings: for MIC: Pseudomonas aeruginosa, NCTC10490, Pseudomonas aeruginosa NCTC 10490, Gram -, read-out: Minimum inhibitory concentration (MIC)
Experimental: as §1

[13] = test system: Micrococcus luteus ATCC 9341; test: Antibacterial activity (MIC), Micrococcus luteus ATCC 9341; settings: ATCC9341; Micrococcus luteus ATCC 9341, Gram +; read-out: Minimum inhibitory concentration (MIC)
Experimental: as §1

[14] = test system: Pseudomonas aeruginosa E-2; test: Antibacterial activity (MIC), P. aeruginosa E-2; settings: E2; Pseudomonas aeruginosa E-2, Gram -; read-out: Minimum inhibitory concentration (MIC)
Experimental: as §1

[15] = test system: Morganella morganii IFO 3848; test: Antibacterial activity (MIC), Morganella morganii IFO 3848; settings: for MIC: Morganella morganii, IFO3848, Morganella morganii IFO 3848, Gram -, read-out: Minimum inhibitory concentration (MIC); for Minimum inhibitory concentration (MIC): Morganella morganii IFO 3848, Gram -, hydrochloride
Experimental: as §1

[16] = test system: Pseudomonas aeruginosa IFO 3445; test: Antibacterial activity (MIC), P. aeruginosa IFO 3445; settings: for MIC: Pseudomonas aeruginosa, IFO3445, Pseudomonas aeruginosa IFO 3445, Gram -, read-out: Minimum inhibitory concentration (MIC)
Experimental: as §1

[17] = test system: Streptococcus faecalis IID 682; test: Antibacterial activity (MIC), Streptococcus faecalis IID 682; settings: for MIC: Enterococcus faecalis, IID682, Streptococcus faecalis IID 682, Gram +, read-out: Minimum inhibitory concentration (MIC)
Experimental: as §1

[18] = test system: Enterobacter aerogenes ATCC 13048; test: Antibacterial activity (MIC), Enterobacter aerogenes ATCC 13048; settings: Klebsiella aerogenes, ATCC13048; Enterobacter aerogenes ATCC 13048, Gram -; read-out: Minimum inhibitory concentration (MIC)
Experimental: as §1

[19] = KC14, Escherichia coli KC-14, Gram -, read-out: Minimum inhibitory concentration (MIC)

Structure (SMILES) | MIC [2] | MIC [3] | MIC (Shigella sonnei EW-33) | MIC [4] | MIC (Enterobacter cloacae 963) | MIC [6] | MIC [7] | MIC [8] | MIC [9] | MIC [10] | MIC [11] | MIC [12] | MIC [13] | MIC [14] | MIC [15] | MIC [16] | MIC [17] | MIC [18] | MIC (Escherichia coli KC-14; [19]) | Minimum inhibitory concentration (MIC) [15] | also measured
CC1CN(c2c(F)cc3c(=O)c(C(=O)O)c4scc5n4c3c2N(C)C5)CC(C)N1 (centres unmarked) [Compound (E), 9,1-(Methylimino)methano-7-fluoro-8-(3,5-dimethyl-1-piperazinyl)-5-oxo-5H-thiazolo[3,2-a]-quinoline-4-carboxylic acid] | 0.1 µg/mL (≈ 0.24 µM) | 1.56 µg/mL (≈ 3.75 µM) | 0.05 µg/mL (≈ 0.12 µM) | 0.78 µg/mL (≈ 1.87 µM) | 0.2 µg/mL (≈ 0.48 µM) | 0.78 µg/mL (≈ 1.87 µM) | 6 ng/mL (≈ 0.0144 µM) | 0.1 µg/mL (≈ 0.24 µM) | 0.025 µg/mL (≈ 0.06 µM) | 0.1 µg/mL (≈ 0.24 µM) | 0.025 µg/mL (≈ 0.06 µM) | 0.39 µg/mL (≈ 0.936 µM) | 0.39 µg/mL (≈ 0.936 µM) | 1.56 µg/mL (≈ 3.75 µM) | 0.39 µg/mL (≈ 0.936 µM) | 1.56 µg/mL (≈ 3.75 µM) | 0.2 µg/mL (≈ 0.48 µM) | 0.2 µg/mL (≈ 0.48 µM) | – | – | MIC (Proteus vulgaris OX-19; Proteus vulgaris, OX19, read-out: Minimum inhibitory concentration (MIC)): 0.05 µg/mL (≈ 0.12 µM); MIC ([1]; Staphylococcus aureus, IID803, read-out: Minimum inhibitory concentration (MIC)): 0.05 µg/mL (≈ 0.12 µM); MIC ([5]; Staphylococcus aureus): 0.05 µg/mL (≈ 0.12 µM); MIC (Escherichia coli KC-14; Escherichia coli, KC14, read-out: Minimum inhibitory concentration (MIC)): 0.05 µg/mL (≈ 0.12 µM)
CN1Cc2csc3c(C(=O)O)c(=O)c4cc(F)c(N5CCNCC5)c1c4n23 [Compound (C), 9,1-(Methylimino)methano-7-fluoro-8-(1-piperazinyl)-5-oxo-5H-thiazolo[3,2-a]quinoline-4-carboxylic acid] | 0.05 µg/mL (≈ 0.129 µM) | 0.1 µg/mL (≈ 0.257 µM) | 0.025 µg/mL (≈ 0.0644 µM) | 0.1 µg/mL (≈ 0.257 µM) | 0.05 µg/mL (≈ 0.129 µM) | 0.2 µg/mL (≈ 0.515 µM) | 6 ng/mL (≈ 0.0154 µM) | 0.05 µg/mL (≈ 0.129 µM) | 0.025 µg/mL (≈ 0.0644 µM) | 0.05 µg/mL (≈ 0.129 µM) | 0.006 µg/mL (≈ 0.0154 µM) | 0.2 µg/mL (≈ 0.515 µM) | 0.39 µg/mL (≈ 1 µM) | 0.39 µg/mL (≈ 1 µM) | 0.05 µg/mL (≈ 0.129 µM) | 0.39 µg/mL (≈ 1 µM) | 0.05 µg/mL (≈ 0.129 µM) | 0.05 µg/mL (≈ 0.129 µM) | 0.05 µg/mL (≈ 0.129 µM) | – | MIC (Proteus vulgaris OX-19; OX19, Proteus vulgaris OX-19, Gram -, read-out: Minimum inhibitory concentration (MIC)): 0.006 µg/mL (≈ 0.0154 µM); MIC ([1]; IID803, Staphylococcus aureus IID 803, Gram +, read-out: Minimum inhibitory concentration (MIC)): 0.05 µg/mL (≈ 0.129 µM); MIC ([5]; Staphylococcus aureus FDA 209P JC-1, Gram +): 0.05 µg/mL (≈ 0.129 µM)
CCN1CCN(c2c(F)cc3c(=O)c(C(=O)O)c4scc5n4c3c2N(C)C5)CC1 [Compound (K), 9,1-(Methylimino)methano-7-fluoro-8-(4-ethyl-1-piperazinyl)-5-oxo-5H-thiazolo[3,2-a]quinoline-4-carboxylic acid hydrochloride] | 0.05 µg/mL | – | – | – | – | – | – | – | 0.05 µg/mL | – | – | – | – | – | – | – | – | – | 0.05 µg/mL | 0.20 µg/mL | Minimum inhibitory concentration (MIC) ([17]; Streptococcus faecalis IID 682, Gram +, hydrochloride): 0.20 µg/mL
CN1CCN(c2c(F)cc3c(=O)c(C(=O)O)c4scc5n4c3c2N(C)C5)CC1 [Compound (B), 9,1-(Methylimino)methano-7-fluoro-8-(4-methyl-1-piperazinyl)-5-oxo-5H-thiazolo [3,2-a]quinoline-4-carboxylic acid hydrochloride] | – | – | – | – | – | – | – | – | 0.05 µg/mL | – | – | – | – | – | – | – | – | – | – | 0.10 µg/mL | Minimum inhibitory concentration (MIC) ([3]; Citrobacter freundii NIHJ 10018-68, Gram -, hydrochloride): 0.39 µg/mL; Minimum inhibitory concentration (MIC) (Shigella sonnei EW-33; Shigella sonnei EW-33, Gram -, hydrochloride): 0.05 µg/mL; Minimum inhibitory concentration (MIC) (Enterobacter cloacae 963; Enterobacter cloacae 963, Gram -, hydrochloride): 0.10 µg/mL; Minimum inhibitory concentration (MIC) ([6]; Serratia marcescens IAM 1184, Gram -, hydrochloride): 0.39 µg/mL; Minimum inhibitory concentration (MIC) ([8]; Staphylococcus epidermidis IAM-1296, Gram +, hydrochloride): 0.10 µg/mL; Minimum inhibitory concentration (MIC) ([11]; Bacillus subtilis ATCC 6633, Gram +, hydrochloride): 0.025 µg/mL; Minimum inhibitory concentration (MIC) ([12]; Pseudomonas aeruginosa NCTC 10490, Gram -, hydrochloride): 0.39 µg/mL; Minimum inhibitory concentration (MIC) ([16]; Pseudomonas aeruginosa IFO 3445, Gram -, hydrochloride): 0.78 µg/mL
